Biological target: T1, human factor Xa (Homo sapiens, UniProt P00742)
T1 construct: 25 μl human factor Xa (Enzyme Research Laboratories, Inc; South Bend, Ind.); purchased Enzyme Research Laboratories, Inc; South Bend, Ind
Experiment: Factor Xa assay (chromogenic, purified enzyme)
Assay type: biochemical
Conditions: inhibition constant for factor Xa; chromogenic substrate S-2765 140 μM, enzyme 0.5 nM, 25° C., pH 7.8; Ki=IC50/{1+(substrate concentration/Km)}; read-out: Ki(FXa)
Text: The ability of the compound of formulae I, Ib and Ic to inhibit factor Xa or factor VIIa or other enzymes like thrombin, plasmin, or trypsin can be assessed by determining the concentration of the compound of the formulae I, Ib and Ic that inhibits enzyme activity by 50%, i.e. the IC50 value, which was related to the inhibition constant Ki. Purified enzymes were used in chromogenic assays. The concentration of inhibitor that causes a 50% decrease in the rate of substrate hydrolysis was determined by linear regression after plotting the relative rates of hydrolysis (compared to the uninhibited control) versus the log of the concentration of the compound of formulae I, Ib and Ic. For calculating the inhibition constant Ki, the IC50 value was corrected for competition with substrate using the formula wherein Km is the Michaelis-Menten constant (Chen and Prusoff, Biochem.
Ki=IC50/{1+(substrate concentration/Km)}
Pharmacol. 22 (1973) 3099-3108; I. H. Segal, Enzyme Kinetics, 1975, John Wiley & Sons, New York, 100-125; which were incorporated herein by reference).
The IC50 was determined by combining in appropriate wells of a Costar half-area microtiter plate 25 μl human factor Xa (Enzyme Research Laboratories, Inc.; South Bend, Ind.) in TBS-PEG; 40 μl 10% (v/v) DMSO in TBS-PEG (uninhibited control) or various concentrations of the compound to be tested diluted in 10% (v/v) DMSO in TBS-PEG; and substrate S-2765 (N(α)-benzyloxycarbonyl-D-Arg-Gly-L-Arg-p-nitroanilide; Kabi Pharmacia, Inc.; Franklin, Ohio) in TBS-PEG.
The assay was performed by pre-incubating the compound of formulae I, Ib and Ic plus enzyme for 10 min. Then the assay was initiated by adding substrate to obtain a final volume of 100 μl. The initial velocity of chromogenic substrate hydrolysis was measured by the change in absorbance at 405 nm using a Bio-tek Instruments kinetic plate reader (Ceres UV900HDi) at 25° C. during the linear portion of the time course (usually 1.5 min after addition of substrate). The enzyme concentration was 0.5 nM and substrate concentration was 140 μM.
The inhibitory activity towards factor VIIa/tissue factor activity was determined using a chromogenic assay essentially as described previously (J. A. Ostrem et al., Biochemistry 37 (1998) 1053-1059 which was incorporated herein by reference). Kinetic assays were conducted at 25° C. in half-area microtiter plates (Costar Corp., Cambridge, Mass.) using a kinetic plate reader (Molecular Devices Spectramax 250). A typical assay consisted of 25 μl human factor VIIa and TF (5 nM and 10 nM, respective final concentration) combined with 40 μl of inhibitor dilutions in 10% DMSO/TBS-PEG buffer (50 mM Tris, 15 mM NaCl, 5 mM CaCl2, 0.05% PEG 8000, pH 8.15). Following a 15 minute preincubation period, the assay was initiated by the addition of 35 μl of the chromogenic substrate S-2288 (D-Ile-Pro-Arg-p-nitroanilide, Pharmacia Hepar Inc., 500 μM final concentration).

T1 sequence (P00742 235-488 limits assumed): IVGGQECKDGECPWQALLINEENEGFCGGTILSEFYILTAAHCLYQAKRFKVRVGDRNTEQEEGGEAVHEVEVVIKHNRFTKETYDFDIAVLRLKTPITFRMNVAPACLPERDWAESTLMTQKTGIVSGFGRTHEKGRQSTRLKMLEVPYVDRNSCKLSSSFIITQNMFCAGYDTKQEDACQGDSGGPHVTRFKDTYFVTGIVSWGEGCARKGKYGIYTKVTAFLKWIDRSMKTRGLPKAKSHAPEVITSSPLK
T1 sequence (P00742 41-179 partner limits assumed): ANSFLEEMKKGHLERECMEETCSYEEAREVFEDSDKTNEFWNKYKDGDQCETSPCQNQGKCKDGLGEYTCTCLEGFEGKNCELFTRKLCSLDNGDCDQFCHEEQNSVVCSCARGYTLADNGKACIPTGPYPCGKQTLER

SMILES	Ki [nM]
CC(C)N1CCC(NC(=O)c2cc(C(=O)NCCO)nn2Cc2cc(-c3ccc(Cl)s3)on2)CC1 [Example 27, 1-[5-(5-Chloro-thiophen-2-yl)-isoxazol-3-ylmethyl]-1H-pyrazole-3,5-dicarboxylic acid 3-[(2-hydroxy-ethyl)-amide] 5-[(1-isopropyl-piperidin-4-yl)-amide]]	88
CC(C)N1CCC(NC(=O)c2cc(C(=O)NCC(=O)O)nn2Cc2cc(-c3ccc(Cl)s3)on2)CC1 [Example 28, {[1-[5-(5-Chloro-thiophen-2-yl)-isoxazol-3-ylmethyl]-5-(1-isopropyl-piperidin-4-ylcarbamoyl)-1H-pyrazole-3-carbonyl]-amino}-acetic acid]	82
CC(C)N1CCC(NC(=O)c2cc(-c3n[nH]c(=O)o3)nn2Cc2cc(-c3ccc(Cl)s3)on2)CC1 [Example 29, 2-[5-(5-Chloro-thiophen-2-yl)-isoxazol-3-ylmethyl]-5-(5-oxo-4,5-dihydro-[1,3,4]oxadiazol-2-yl)-2H-pyrazole-3-carboxylic acid (1-isopropyl-piperidin-4-yl)-amide]	155
CC(C)N1CCC(NC(=O)c2cc(C(=O)N3CCN(CCO)CC3)nn2Cc2cc(-c3ccc(Cl)s3)on2)CC1 [Example 30, 2-[5-(5-Chloro-thiophen-2-yl)-isoxazol-3-ylmethyl]-5-[4-(2-hydroxy-ethyl)-piperazine-1-carbonyl]-2H-pyrazole-3-carboxylic acid (1-isopropyl-piperidin-4-yl)-amide]	262
COCCN(CCOC)C(=O)c1cc(C(=O)NC2CCN(C(C)C)CC2)n(Cc2cc(-c3ccc(Cl)s3)on2)n1 [Example 31, 1-[5-(5-Chloro-thiophen-2-yl)-isoxazol-3-ylmethyl]-1H-pyrazole-3,5-dicarboxylic acid 3-[bis-(2-methoxy-ethyl)-amide] 5-[(1-isopropyl-piperidin-4-yl)-amide]]	180
CC(C)N1CCC(NC(=O)c2cc(C(=O)OCCN3CCNC3=O)nn2Cc2cc(-c3ccc(Cl)s3)on2)CC1 [Example 32, 1-[5-(5-Chloro-thiophen-2-yl)-isoxazol-3-ylmethyl]-5-(1-isopropyl-piperidin-4-ylcarbamoyl)-1H-pyrazole-3-carboxylic acid 2-(2-oxo-imidazolidin-1-yl)-ethyl ester]	45
CC(C)N1CCC(NC(=O)c2cc(C(=O)N(C)CC(=O)O)nn2Cc2cc(-c3ccc(Cl)s3)on2)CC1 [Example 33, {[1-[5-(5-Chloro-thiophen-2-yl)-isoxazol-3-ylmethyl]-5-(1-isopropyl-piperidin-4-ylcarbamoyl)-1H-pyrazole-3-carbonyl]-methyl-amino}-acetic acid]	82
CC(C)N1CCC(NC(=O)c2cc(C(=O)N3CCSCC3)nn2Cc2cc(-c3ccc(Cl)s3)on2)CC1 [Example 34, 2-[5-(5-Chloro-thiophen-2-yl)-isoxazol-3-ylmethyl]-5-(thiomorpholine-4-carbonyl)-2H-pyrazole-3-carboxylic acid (1-isopropyl-piperidin-4-yl)-amide]	108
CC(C)N1CCC(NC(=O)c2cc(C(=O)N3CCC(O)CC3)nn2Cc2cc(-c3ccc(Cl)s3)on2)CC1 [Example 35, 2-[5-(5-Chloro-thiophen-2-yl)-isoxazol-3-ylmethyl]-5-(4-hydroxy-piperidine-1-carbonyl)-2H-pyrazole-3-carboxylic acid (1-isopropyl-piperidin-4-yl)-amide]	163
CC(C)N1CCC(NC(=O)c2cc(C(=O)N3CCC(O)C3)nn2Cc2cc(-c3ccc(Cl)s3)on2)CC1 (stereo not drawn) [Example 36, 2-[5-(5-Chloro-thiophen-2-yl)-isoxazol-3-ylmethyl]-5-(3-hydroxy-pyrrolidine-1-carbonyl)-2H-pyrazole-3-carboxylic acid (1-isopropyl-piperidin-4-yl)-amide]	122
CC(C)N1CCC(NC(=O)c2cc(C(=O)N3CCC(CO)CC3)nn2Cc2cc(-c3ccc(Cl)s3)on2)CC1 [Example 37, 2-[5-(5-Chloro-thiophen-2-yl)-isoxazol-3-ylmethyl]-5-(4-hydroxymethyl-piperidine-1-carbonyl)-2H-pyrazole-3-carboxylic acid (1-isopropyl-piperidin-4-yl)-amide]	195
CC(C)N1CCC(NC(=O)c2cc(C(=O)N3CCC4(CCCC4)CC3)nn2Cc2cc(-c3ccc(Cl)s3)on2)CC1 [Example 38, 5-(8-Aza-spiro[4.5]decane-8-carbonyl)-2-[5-(5-chloro-thiophen-2-yl)-isoxazol-3-ylmethyl]-2H-pyrazole-3-carboxylic acid (1-isopropyl-piperidin-4-yl)-amide]	932
CC(C)N1CCC(NC(=O)c2cc(C(=O)N3CCC(S(C)(=O)=O)C3)nn2Cc2cc(-c3ccc(Cl)s3)on2)CC1 (stereo not drawn) [Example 39, 2-[5-(5-Chloro-thiophen-2-yl)-isoxazol-3-ylmethyl]-5-(3-methanesulfonyl-pyrrolidine-1-carbonyl)-2H-pyrazole-3-carboxylic acid (1-isopropyl-piperidin-4-yl)-amide]	145
CC(C)N1CCC(NC(=O)c2cc(C(=O)N(C)C3CCS(=O)(=O)C3)nn2Cc2cc(-c3ccc(Cl)s3)on2)CC1 (stereo not drawn) [Example 40, 1-[5-(5-Chloro-thiophen-2-yl)-isoxazol-3-ylmethyl]-1H-pyrazole-3,5-dicarboxylic acid 3-[(1,1-dioxo-tetrahydro-1-thiophen-3-yl)-methyl-amide] 5-[(1-isopropyl-piperidin-4-yl)-amide]]	123
CC(C)N1CCC(NC(=O)c2cc(C(=O)N3CCNC(=O)C3)nn2Cc2cc(-c3ccc(Cl)s3)on2)CC1 [Example 41, 2-[5-(5-Chloro-thiophen-2-yl)-isoxazol-3-ylmethyl]-5-(3-oxo-piperazine-1-carbonyl)-2H-pyrazole-3-carboxylic acid (1-isopropyl-piperidin-4-yl)-amide]	81
CC(C)N1CCC(NC(=O)c2cc(C(=O)N3CCCOCC3)nn2Cc2cc(-c3ccc(Cl)s3)on2)CC1 [Example 42, 2-[5-(5-Chloro-thiophen-2-yl)-isoxazol-3-ylmethyl]-5-([1,4]oxazepane-4-carbonyl)-2H-pyrazole-3-carboxylic acid (1-isopropyl-piperidin-4-yl)-amide]	84
CC(C)N1CCC(NC(=O)c2cc(C(=O)N3CCCC3C(F)(F)F)nn2Cc2cc(-c3ccc(Cl)s3)on2)CC1 (stereo not drawn) [Example 43, 2-[5-(5-Chloro-thiophen-2-yl)-isoxazol-3-ylmethyl]-5-(2-trifluoromethyl-pyrrolidine-1-carbonyl)-2H-pyrazole-3-carboxylic acid (1-isopropyl-piperidin-4-yl)-amide]	72
CC(C)N1CCC(NC(=O)c2cc(C(=O)NCCS(N)(=O)=O)nn2Cc2cc(-c3ccc(Cl)s3)on2)CC1 [Example 44, 1-[5-(5-Chloro-thiophen-2-yl)-isoxazol-3-ylmethyl]-1H-pyrazole-3,5-dicarboxylic acid 5-[(1-isopropyl-piperidin-4-yl)-amide] 3-[(2-sulfamoyl-ethyl)-amide]]	46
CC(C)N1CCC(NC(=O)c2cc(C(=O)NC3CC3)nn2Cc2cc(-c3ccc(Cl)s3)on2)CC1 [Example 45, 1-[5-(5-Chloro-thiophen-2-yl)-isoxazol-3-ylmethyl]-1H-pyrazole-3,5-dicarboxylic acid 3-cyclopropylamide 5-[(1-isopropyl-piperidin-4-yl)-amide]]	61
CC(C)N1CCC(NC(=O)c2cc(C(=O)NC3CCC3)nn2Cc2cc(-c3ccc(Cl)s3)on2)CC1 [Example 46, 1-[5-(5-Chloro-thiophen-2-yl)-isoxazol-3-ylmethyl]-1H-pyrazole-3,5-dicarboxylic acid 3-cyclobutylamide 5-[(1-isopropyl-piperidin-4-yl)-amide]]	106
COCCNC(=O)c1cc(C(=O)NC2CCN(C(C)C)CC2)n(Cc2cc(-c3ccc(Cl)s3)on2)n1 [Example 47, 1-[5-(5-Chloro-thiophen-2-yl)-isoxazol-3-ylmethyl]-1H-pyrazole-3,5-dicarboxylic acid 5-[(1-isopropyl-piperidin-4-yl)-amide] 3-[(2-methoxy-ethyl)-amide]]	86

— patent publication US20080306056A1, “PYRAZOLE-DERIVATIVES AS FACTOR Xa INHIBITORS” (SANOFI-AVENTIS DEUTSCHLAND GMBH, priority 2002, published 2008)
